Test results from BindingDB's records for doi:10.1016/j.bmcl.2013.04.079 (Bristol-Myers Squibb, 2013).

Legend:
[1] = Antagonist activity at human CCR1 assessed as inhibition of RANTES-induced chemotaxis
[2] = Antagonist activity at human CCR1 assessed as inhibition of MIP1alpha-induced chemotaxis
[3] = Antagonist activity at human CCR1 assessed as inhibition of ieukotactin-1-induced chemotaxis
[4] = Antagonist activity at human CCR1 assessed as inhibition of HCC-1-induced chemotaxis
[5] = Antagonist activity at human CCR1 assessed as inhibition of MPIF-1-induced chemotaxis

Structure (SMILES) | IC50 [2] | other results
CC(C)[C@@H](NC(=O)[C@@H]1CC[C@@H](O)C1)C(=O)N1CC[C@](O)(c2ccc(Cl)cc2)C(C)(C)C1 | 2.1 nM | IC50 [1]: 1 nM; IC50 [3]: 4.4 nM; IC50 [4]: 4 nM; IC50 [5]: 2.7 nM
CC(C)[C@@H](NC(=O)[C@@H]1CCC[C@@H]1N)C(=O)N1CC[C@](O)(c2ccc(Cl)cc2)C(C)(C)C1 | 5.6 nM | –
CC(C)[C@@H](NC(=O)[C@@H]1CCC[C@@H]1O)C(=O)N1CC[C@](O)(c2ccc(Cl)cc2)C(C)(C)C1 | 3.1 nM | –
CC(C)[C@@H](NC(=O)c1cccc(-c2ccccc2NC(N)=O)c1)C(=O)N1CCC(c2ccc(Cl)cc2)CC1 | 153 nM | –
CC(C)[C@@H](NC(=O)c1cccc(S(N)(=O)=O)c1)C(=O)N1CCC(c2ccc(Cl)cc2)CC1 | 123 nM | –
CC(C)[C@@H](NC(=O)Cc1ccncc1)C(=O)N1CCC(c2ccc(Cl)cc2)CC1 | 107 nM | –
CC(C)[C@@H](NC(=O)c1cccc(-c2ccccc2NC(N)=O)c1)C(=O)N1CC[C@](O)(c2ccc(Cl)cc2)C(C)(C)C1 | 48 nM | –
CC(C)[C@@H](NC(=O)c1ccc(F)c(O)c1)C(=O)N1CCC(c2ccc(Cl)cc2)CC1 | 48 nM | –
CC(C)[C@@H](NC(=O)c1cccnc1)C(=O)N1CC[C@H](c2ccc(Cl)cc2)C(C)(C)C1 | 29 nM | –
CC(C)[C@@H](NC(=O)c1cccnc1)C(=O)N1CC[C@](O)(c2ccc(Cl)cc2)C2(CC2)C1 | 21 nM | –
CC(C)[C@@H](NC(=O)C1CCCC1)C(=O)N1CCN(c2ccc(Cl)cc2)C(C)(C)C1 | 18 nM | –
CC(=O)N[C@@H](C(=O)N1CC[C@](O)(c2ccc(Cl)cc2)C(C)(C)C1)C(C)C | 15 nM | –
CC(C)[C@@H](NC(=O)c1ccc(F)c(O)c1)C(=O)N1CC[C@](O)(c2ccc(Cl)cc2)C(C)(C)C1 | 13 nM | –
CC(C)[C@@H](NC(=O)[C@H]1CC[C@H](O)C1)C(=O)N1CC[C@](O)(c2ccc(Cl)cc2)C(C)(C)C1 | 12 nM | –
CC(C)[C@@H](NC(=O)c1ccccc1)C(=O)N1CC[C@](O)(c2ccc(Cl)cc2)C(C)(C)C1 | 10 nM | –
CC(C)[C@@H](NC(=O)c1cccc(S(N)(=O)=O)c1)C(=O)N1CC[C@](O)(c2ccc(Cl)cc2)C(C)(C)C1 | 9.9 nM | –
CC(C)[C@@H](NC(=O)c1cccc(C(=O)O)c1)C(=O)N1CC[C@](O)(c2ccc(Cl)cc2)C(C)(C)C1 | 8.9 nM | –
CC(C)[C@@H](NC(=O)C1CCCC1(O)CCN1CCOCC1)C(=O)N1CC[C@](O)(c2ccc(Cl)cc2)C(C)(C)C1 (stereo partly drawn) | 8.3 nM | –
CC(C)[C@@H](NC(=O)c1cccnc1)C(=O)N1CC[C@](O)(c2ccc(Cl)cc2)C(C)(C)C1 | 6.1 nM | –
CC(C)[C@@H](NC(=O)c1ccc(Cl)cc1)C(=O)N1CC[C@](O)(c2ccc(Cl)cc2)C(C)(C)C1 | 5.5 nM | –
CC(C)[C@@H](NC(=O)c1ccccc1Cl)C(=O)N1CC[C@](O)(c2ccc(Cl)cc2)C(C)(C)C1 | 4.7 nM | –
CCC(=O)N[C@@H](C(=O)N1CC[C@](O)(c2ccc(Cl)cc2)C(C)(C)C1)C(C)C | 3.6 nM | –
CC(C)[C@@H](NC(=O)Cc1ccncc1)C(=O)N1CC[C@](O)(c2ccc(Cl)cc2)C(C)(C)C1 | 3.5 nM | –
CC(C)[C@@H](NC(=O)[C@@H]1CC[C@H](O)C1)C(=O)N1CC[C@](O)(c2ccc(Cl)cc2)C(C)(C)C1 | 2.9 nM | –
CC(C)[C@@H](NC(=O)C1CCCC1)C(=O)N1CC[C@](O)(c2ccc(Cl)cc2)C(C)(C)C1 | 2.5 nM | –
CC(C)CC(=O)N[C@@H](C(=O)N1CC[C@](O)(c2ccc(Cl)cc2)C(C)(C)C1)C(C)C | 1.9 nM | –
CC(C)[C@@H](NC(=O)Cc1ccccc1)C(=O)N1CC[C@](O)(c2ccc(Cl)cc2)C(C)(C)C1 | 1.8 nM | –
CC(C)CCC(=O)N[C@@H](C(=O)N1CC[C@](O)(c2ccc(Cl)cc2)C(C)(C)C1)C(C)C | 1.2 nM | –
CC(C)[C@@H](NC(=O)[C@H]1CC[C@@H](O)C1)C(=O)N1CC[C@](O)(c2ccc(Cl)cc2)C(C)(C)C1 | 1.1 nM | –
